Experimental findings from patent publication US7608408B2, “Methods of identifying compounds that inhibit Notch cleavage” (Bristol-Myers Squibb Company, priority 2005, dated 2009) are described below.

Assay type in all cases: cell-based
The subject of experiment [1] is HT29-L23 cells. The experiment in a line: Mucin-2 induction in HT29-L23 cells. As to conditions: read-out: HT29-L23 IC50 (mucin-2 induction). The protocol:
HT29 cells were seeded in 4 or 8 well slide chambers. 24 hours later, cells were treated for 72 hours in serum-free medium with either Compound Z (1 uM in DMSO) or DMSO at a final DMSO concentration of 0.1%. Treated cells were washed twice with PBS, fixed with 4% paraformaldehyde (10 min, RT) followed by methanol (2 min, −20° C.). Fixed cells were washed twice with PBS, incubated with PBS+0.5% TritonX100 for 10 min., washed twice with PBS and blocked for 2 hr in PBS containing 0.1% TritonX100, 2% BSA and 5% dry milk. Cells were stained with primary antibody against mucin-2, mucin-5AC, mucin-1, mucin-3, or mucin-6 by adding primary antibody in blocking buffer and incubating 1 hr, RT. […]
HT29 subclones were generated through limiting dilution. […] Mucin-2 positive cells were measured by FACS analysis (FIG. 2). […] Images were acquired on an ArrayScan™ system and analyzed for mucin-2 expression with the Target activation application (FIGS. 3A and 3B).
(§1) HeLa cells were transiently transfected with Notch-1 ΔE and the CBF1 luciferase reporter, and inhibition of Notch signaling by compounds known to inhibit γ-secretase was determined. Induction of mucin-2 in HT29-L23 cells was determined as in Example 1 for the same set of γ-secretase inhibitory compounds.

In experiment [2] the test system is Notch signaling (Notch-1 ΔE / CBF1 luciferase reporter). The experiment in a line: Inhibition of Notch signaling in HeLa cells transiently transfected with Notch-1 ΔE and CBF1 luciferase reporter. As to conditions: Homo sapiens. Here is the method:
as §1

In another experiment the test system is Notch. The experiment in a line: Notch cleavage assay. The note with it: n=252. The source says: (§2) Any method for determining the ability of a compound to inhibit cleavage of γ-secretase substrates known in the art may be employed. For example, methods for assessing the ability of a compound to cleave APP are known. The ability of a compound to cleave APP may be assessed, for example, by measuring or detecting Aβ peptides (e.g., Aβ1-40, Aβ1-42; see, e.g., U.S. Published Application No. 2003/0215896).

The test system of the next experiment is APP. Briefly: APP cleavage assay (Aβ peptides). The note with it: n=166.
Text: as §2

Another experiment relates to HT29 cells. Briefly: Mucin immunostaining in HT29 cells by microscopy. As to conditions: 1 uM, 72 hours, serum-free medium. The protocol: HT29 cells were seeded in 4 or 8 well slide chambers. 24 hours later, cells were treated for 72 hours in serum-free medium with either Compound Z (1 uM in DMSO) or DMSO at a final DMSO concentration of 0.1%. Treated cells were washed twice with PBS, fixed with 4% paraformaldehyde (10 min, RT) followed by methanol (2 min, −20° C.). Fixed cells were washed twice with PBS, incubated with PBS+0.5% TritonX100 for 10 min., washed twice with PBS and blocked for 2 hr in PBS containing 0.1% TritonX100, 2% BSA and 5% dry milk. Cells were stained with primary antibody against mucin-2, mucin-5AC, mucin-1, mucin-3, or mucin-6 by adding primary antibody in blocking buffer and incubating 1 hr, RT. Cells were washed 3× with PBS+0.1% TritonX100 and stained with an appropriate species-specific PE-, TRITC- or FITC-labeled secondary antibody for 30 min., RT. Cells were visualized through microscopy. γ-secretase inhibitor Compound Z induced mucin-2 and mucin-5AC (FIGS. 1A and 1B) but not mucin-1, mucin-3, or mucin-6 in HT29 cells.

Experiment [3] deals with HT29-L23 cells. Briefly: Real time PCR of Notch pathway genes in HT29-L23 cells. The note with it: relative to DMSO, normalized to PPIA. The protocol:
HT29-L23 cells were treated with Compound Z or DMSO as described in Example 1. mRNA were isolated at indicated time points (FIGS. 5A-E) and analyzed by real time PCR with indicated Taqman probes (Applied Biosystems, Foster City, Calif.). Results were normalized relative to the amount of cyclophilin A (PPIA) mRNA for the same sample and were plotted as fold changes relative to DMSO treated sample at time zero. Statistical significance was determined by one-way ANOVA followed by Bonferroni's multiple comparison test performed within groups.

The test system of experiment [4] is HT29-L23 cells. Briefly: Mucin-2 induction in HT29-L23 cells transfected with NICD, AICD or control plasmid (High Content Screening). As to conditions: 1 uM. The protocol: HT29-L23 cells were transiently transfected with control plasmid (pcDNA-DsRed) or Myc epitope tagged Notch intracellular domain (NICD) (activated Notch-1) or APP intracellular domain (AICD) (activated APP). Cells were treated with Compound Z (1 uM in DMSO) or vehicle, and protein expression was analyzed by High Content Screening as described in Example 1. After staining with Mucin-2 and Myc antibodies, the transfected subpopulation of cells (Myc positive) were used for final analysis. Cells without DsRed expression were designated as control. Statistical significance was determined by one-way ANOVA followed by Bonferroni's multiple comparison test performed within and between groups.

In the case of `C[C@H](NC(=O)[C@@H](O)c1cc(F)cc(F)c1)C(=O)N[C@@H]1C(=O)N(C)N=Cc2ccccc21` [Compound 1], the IC50 (commonly the concentration at which inhibition is half-maximal) in the experiment on HT29-L23 cells [1] was determined as 11.9 nM. This molecule also returned an IC50 in experiment [2] of 4.59 nM. Also, in the experiment on Notch, the EC50 – broadly, the concentration giving half of the maximal effect – was determined as 2.1 nM. For the same molecule, the EC50 in the experiment with APP was determined as 0.81 nM. Moreover, in the experiment on HT29 cells, the mucin-1 induction result is “not”, the mucin-2 induction entry is given as “induced”, the mucin-3 induction result was “not” and the mucin-5AC induction entry is “induced”. In addition, the mucin-6 induction entry with HT29 cells is given as “not”. In the experiment with HT29-L23 cells [3], the “Delta-1 mRNA” value was “induced”, the “HES-1 mRNA” value is on record as “downregulated”, the “Jagged-2 mRNA” value is given as “induced” and the “Math-1 mRNA” value is “induced”. Further, the “Mucin-2 mRNA” value in the experiment with HT29-L23 cells [3] is given as “induced”. For the same molecule, the “number of cells producing mucin-2” value in the experiment with HT29-L23 cells [4] (AICD (activated APP) transfected group) is reported as “increased”. Also, in the experiment on HT29-L23 cells [4] (Control group), the “number of cells producing mucin-2” value is “increased”.
